Laboratory results reported in ChEMBL document CHEMBL3217653, “Design and synthesis of -amino alcohol based -lactamisatin chimeras and preliminary analysis of in vitro activity against the protozoal pathogen Trichomonas vaginalis” (Medchemcomm, 2013).
pIC50: −log10 of the molar value.

Tests used:
Trichomonas vaginalis [1] = experiment: Antimicrobial activity against Trichomonas vaginalis G3 assessed as growth inhibition after 24 hrs by hemocytometry; type: functional; settings: G3, 24 h
Trichomonas vaginalis [2] = experiment: Antimicrobial activity against Trichomonas vaginalis G3 assessed as growth inhibition at 50 uM after 24 hrs by hemocytometry; type: functional; settings: G3, 24 h, read-out: GI
[3] = Cytotoxicity against human HeLa cells assessed as cell viability at 10 uM after 24 hrs by trypan blue assay relative to bleomycin; type: cell-based; settings: read-out: Activity

| Compound | pIC50 (Trichomonas vaginalis [1]) | inhibition of growth at 50 µM (Trichomonas vaginalis [2]) [%] | viability at 24 h, 10 µM [3] [%] |
| --- | --- | --- | --- |
| O=C1C(=O)N(CC(CO)N[C@@H]2C(=O)N(c3ccc(Cl)cc3)[C@@H]2/C=C/c2ccccc2)c2ccccc21 (some centres undefined) | 4.61 | 76.2 |  |
| Cc1ccc2c(c1)C(=O)C(=O)N2CC(CO)N[C@@H]1C(=O)N(c2ccc(Cl)cc2)[C@@H]1/C=C/c1ccccc1 (some centres undefined) | 4.84 | 97.6 |  |
| O=C1C(=O)N(CC(CO)N[C@@H]2C(=O)N(c3ccc(Cl)cc3)[C@@H]2/C=C/c2ccccc2)c2ccc(F)cc21 (some centres undefined) | 4.56 | 77.2 |  |
| Cc1ccc(N2C(=O)[C@@H](NC(CO)CN3C(=O)C(=O)c4ccccc43)[C@H]2/C=C/c2ccccc2)cc1 (relative stereo) | 4.72 | 95.3 |  |
| O=C1C(=O)N(CC(CO)N[C@@H]2C(=O)N(C3CCCCC3)[C@@H]2/C=C/c2ccccc2)c2ccccc21 (relative stereo) | 4.73 | 93.6 |  |
| Cc1ccc(N2C(=O)[C@@H](NC(CO)CN3C(=O)C(=O)c4cc(C)ccc43)[C@H]2/C=C/c2ccccc2)cc1 (relative stereo) |  | 56 |  |
| Cc1ccc2c(c1)C(=O)C(=O)N2CC(CO)N[C@@H]1C(=O)N(C2CCCCC2)[C@@H]1/C=C/c1ccccc1 (relative stereo) |  | 70.8 |  |
| Cc1ccc(N2C(=O)[C@@H](NC(CO)CN3C(=O)C(=O)c4cc(Cl)ccc43)[C@H]2/C=C/c2ccccc2)cc1 (relative stereo) |  | 59.8 |  |
| O=C1C(=O)N(CC(CO)N[C@@H]2C(=O)N(c3ccc(Cl)cc3)[C@@H]2/C=C/c2ccccc2)c2ccc(Cl)cc21 (relative stereo) | 5.01 | 97.1 | 30 |
| O=C1C(=O)N(CC(CO)N[C@@H]2C(=O)N(C3CCCCC3)[C@@H]2/C=C/c2ccccc2)c2ccc(Cl)cc21 (relative stereo) |  | 61.8 |  |
| Cc1ccc(N2C(=O)[C@@H](NC(CO)CN3C(=O)C(=O)c4cc(F)ccc43)[C@H]2/C=C/c2ccccc2)cc1 (relative stereo) |  | 71.9 |  |
| O=C1C(=O)N(CC(CO)N[C@@H]2C(=O)N(C3CCCCC3)[C@@H]2/C=C/c2ccccc2)c2ccc(F)cc21 (relative stereo) |  | 64.6 |  |
